Measured values from patent publication US6667387B1, “HCV core peptides” (priority 1992, dated 2003).
Ends that are not written are not given here.

Key:
[1] = test system: antibodies in sera from HCV-seropositive donors; test: ELISA with HCV antibody-positive sera (biotinylated peptides on streptavidin- or avidin-coated plates, unbiotinylated peptides coated directly); assay type: binding, human; details: for PEPTIDE ELISA (O.D.): Table 12, biotinylated 20-mers
In short: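 Peptides coated either directly at 2–5 or 3 μg/ml in carbonate buffer pH 9.6, or biotinylated at 1 μg/ml on streptavidin-coated wells (3 μg/ml). Plates casein-blocked, then human sera (1:100 or 1:20) incubated 1 h at 37° C. Bound antibody detected with HRP anti-human Ig/TMB, read as OD450.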

[2] = ELISA with seronegative / negative control sera (specificity); assay type: binding, human
In short: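 Specificity readout is OD at 450 nm (HRP goat anti-human Ig, TMB/H2O2, sulfuric acid stop), with ≥0.250 counted positive. Seronegative donor sera (typically 1:100, 1 h, 37° C) were applied to casein-blocked wells coated with peptide directly or via streptavidin capture of biotinylated peptide.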

With PQRKTKRNTNRRPQDVKFPG the “optical density (450 nm)” value ([1]; Table 4C, serum 8241, 20-fold dilution) was 0.545, the “optical density (450 nm)” value ([1]; Table 4C, serum 8242, 20-fold dilution) was 2.415 and the “optical density (450 nm)” value ([1]; Table 4C, serum 8243, 20-fold dilution) was 2.306. For the same sequence, the “optical density (450 nm)” value ([1]; Table 4C, serum 8247, 20-fold dilution) was 1.975, the “optical density (450 nm)” value ([1]; Table 4C, serum 8250, 20-fold dilution) was 0.357 and the “optical density (450 nm)” value ([1]; Table 4C, serum 8271, 20-fold dilution) was 1.284. The “optical density (450 nm)” value ([1]; Table 4C, serum 8273, 20-fold dilution) was 2.769, the “optical density (450 nm)” value ([1]; Table 4C, serum 8274, 20-fold dilution) was 2.943 and the “optical density (450 nm)” value ([1]; Table 4C, serum 8275, 20-fold dilution) was 2.030. For the same sequence, the “optical density (450 nm)” value ([1]; Table 4C, serum 8276, 20-fold dilution) was 2.348, the “optical density (450 nm)” value ([1]; Table 4C, serum 8277, 20-fold dilution) was 2.572 and the “optical density (450 nm)” value ([1]; Table 4C, serum 8278, 20-fold dilution) was 2.022. For the same sequence, the “optical density (450 nm)” value ([1]; Table 5, sample 8242 (positive), peptide concentration 0.01 micrograms per milliliter, listed as HCV peptide II) was 1.196, the “optical density (450 nm)” value ([1]; Table 5, sample 8242 (positive), peptide concentration 0.03 micrograms per milliliter, listed as HCV peptide II) was 1.481 and the “optical density (450 nm)” value ([1]; Table 5, sample 8242 (positive), peptide concentration 0.1 micrograms per milliliter, listed as HCV peptide II) was 1.399. For the same sequence, the “optical density (450 nm)” value ([1]; Table 5, sample 8242 (positive), peptide concentration 0.3 micrograms per milliliter, listed as HCV peptide II) was 1.365, the “optical density (450 nm)” value ([1]; Table 5, sample 8242 (positive), peptide concentration 1.0 micrograms per milliliter, listed as HCV peptide II) was 1.368 and the “optical density (450 nm)” value ([1]; Table 5, sample 8242 (positive), peptide concentration 3.0 micrograms per milliliter, listed as HCV peptide II) was 1.427. The “optical density (450 nm)” value ([1]; Table 5, sample 8243 (positive), peptide concentration 0.01 micrograms per milliliter, listed as HCV peptide II) was 1.088, the “optical density (450 nm)” value ([1]; Table 5, sample 8243 (positive), peptide concentration 0.03 micrograms per milliliter, listed as HCV peptide II) was 1.597 and the “optical density (450 nm)” value ([1]; Table 5, sample 8243 (positive), peptide concentration 0.1 micrograms per milliliter, listed as HCV peptide II) was 1.639. The “optical density (450 nm)” value ([1]; Table 5, sample 8243 (positive), peptide concentration 0.3 micrograms per milliliter, listed as HCV peptide II) was 1.608, the “optical density (450 nm)” value ([1]; Table 5, sample 8243 (positive), peptide concentration 1.0 micrograms per milliliter, listed as HCV peptide II) was 1.652 and the “optical density (450 nm)” value ([1]; Table 5, sample 8243 (positive), peptide concentration 3.0 micrograms per milliliter, listed as HCV peptide II) was 1.668. For the same sequence, the “optical density (450 nm)” value ([1]; Table 5, sample 8318 (positive), peptide concentration 0.01 micrograms per milliliter, listed as HCV peptide II) was 2.002, the “optical density (450 nm)” value ([1]; Table 5, sample 8318 (positive), peptide concentration 0.03 micrograms per milliliter, listed as HCV peptide II) was 2.181 and the “optical density (450 nm)” value ([1]; Table 5, sample 8318 (positive), peptide concentration 0.1 micrograms per milliliter, listed as HCV peptide II) was 2.001. The “optical density (450 nm)” value ([1]; Table 5, sample 8318 (positive), peptide concentration 0.3 micrograms per milliliter, listed as HCV peptide II) was 1.958, the “optical density (450 nm)” value ([1]; Table 5, sample 8318 (positive), peptide concentration 1.0 micrograms per milliliter, listed as HCV peptide II) was 1.993 and the “optical density (450 nm)” value ([1]; Table 5, sample 8318 (positive), peptide concentration 3.0 micrograms per milliliter, listed as HCV peptide II) was 2.016. For the same sequence, the “optical density (450 nm)” value ([1]; Table 5, sample 8320 (positive), peptide concentration 0.01 micrograms per milliliter, listed as HCV peptide II) was 2.519, the “optical density (450 nm)” value ([1]; Table 5, sample 8320 (positive), peptide concentration 0.03 micrograms per milliliter, listed as HCV peptide II) was 2.757 and the “optical density (450 nm)” value ([1]; Table 5, sample 8320 (positive), peptide concentration 0.1 micrograms per milliliter, listed as HCV peptide II) was 2.718. The “optical density (450 nm)” value ([1]; Table 5, sample 8320 (positive), peptide concentration 0.3 micrograms per milliliter, listed as HCV peptide II) was 2.684, the “optical density (450 nm)” value ([1]; Table 5, sample 8320 (positive), peptide concentration 1.0 micrograms per milliliter, listed as HCV peptide II) was 2.684 and the “optical density (450 nm)” value ([1]; Table 5, sample 8320 (positive), peptide concentration 3.0 micrograms per milliliter, listed as HCV peptide II) was 2.718. The “optical density (450 nm)” value ([1]; Table 8, serum 8243 (HCV), Avidin) was 1.430, the “optical density (450 nm)” value ([1]; Table 8, serum 8247 (HCV), Avidin) was 1.356 and the “optical density (450 nm)” value ([1]; Table 8, serum 8248 (HCV), Avidin) was 2.287. For the same sequence, the “optical density (450 nm)” value ([1]; Table 8, serum 8269 (HCV), Avidin) was 1.213, the “optical density (450 nm)” value ([1]; Table 8, serum 8273 (HCV), Avidin) was 2.017 and the “optical density (450 nm)” value ([1]; Table 8, serum 8278 (HCV), Avidin) was 1.878. For the same sequence, the “optical density (450 nm)” value ([1]; Table 8, serum 8285 (HCV), Avidin) was 1.592, the “optical density (450 nm)” value ([1]; Table 8, serum 8290 (HCV), Avidin) was 0.060 and the “optical density (450 nm)” value ([1]; Table 8, serum 8291 (HCV), Avidin) was 1.539. For the same sequence, the “PEPTIDE ELISA (O.D.)” value ([1]; serum 0843) was 2.306, the “PEPTIDE ELISA (O.D.)” value ([1]; serum 8240) was 2.441 and the “PEPTIDE ELISA (O.D.)” value ([1]; serum 8241) was 0.545. For the same sequence, the “PEPTIDE ELISA (O.D.)” value ([1]; serum 8242) was 2.415, the “PEPTIDE ELISA (O.D.)” value ([1]; serum 8332) was 1.977 and the “PEPTIDE ELISA (O.D.)” value ([1]; serum 8339) was 2.030. The “PEPTIDE ELISA (O.D.)” value ([1]; serum 8350) was 1.982, the “PEPTIDE ELISA (O.D.)” value ([1]; serum 8377) was 2.181 and the “PEPTIDE ELISA (O.D.)” value ([1]; serum 8378) was 2.140. For the same sequence, the “PEPTIDE ELISA (O.D.)” value ([1]; serum 8388) was 2.463, the “optical density (450 nm)” value ([2]; Table 4C, negative serum) was 0.070 and the “optical density (450 nm)” value ([2]; Table 5, sample 1747 (negative), peptide concentration 0.01 micrograms per milliliter, listed as HCV peptide II) was 0.045. The “optical density (450 nm)” value ([2]; Table 5, sample 1747 (negative), peptide concentration 0.03 micrograms per milliliter, listed as HCV peptide II) was 0.045, the “optical density (450 nm)” value ([2]; Table 5, sample 1747 (negative), peptide concentration 0.1 micrograms per milliliter, listed as HCV peptide II) was 0.045 and the “optical density (450 nm)” value ([2]; Table 5, sample 1747 (negative), peptide concentration 0.3 micrograms per milliliter, listed as HCV peptide II) was 0.046. The “optical density (450 nm)” value ([2]; Table 5, sample 1747 (negative), peptide concentration 1.0 micrograms per milliliter, listed as HCV peptide II) was 0.071, the “optical density (450 nm)” value ([2]; Table 5, sample 1747 (negative), peptide concentration 3.0 micrograms per milliliter, listed as HCV peptide II) was 0.064 and the “optical density (450 nm)” value ([2]; Table 5, sample 1781 (negative), peptide concentration 0.01 micrograms per milliliter, listed as HCV peptide II) was 0.053. The “optical density (450 nm)” value ([2]; Table 5, sample 1781 (negative), peptide concentration 0.03 micrograms per milliliter, listed as HCV peptide II) was 0.049, the “optical density (450 nm)” value ([2]; Table 5, sample 1781 (negative), peptide concentration 0.1 micrograms per milliliter, listed as HCV peptide II) was 0.047 and the “optical density (450 nm)” value ([2]; Table 5, sample 1781 (negative), peptide concentration 0.3 micrograms per milliliter, listed as HCV peptide II) was 0.051. The “optical density (450 nm)” value ([2]; Table 5, sample 1781 (negative), peptide concentration 1.0 micrograms per milliliter, listed as HCV peptide II) was 0.055, the “optical density (450 nm)” value ([2]; Table 5, sample 1781 (negative), peptide concentration 3.0 micrograms per milliliter, listed as HCV peptide II) was 0.057 and the “optical density (450 nm)” value ([2]; Table 8, serum 1782 (blood donor), Avidin) was 0.057. For the same sequence, the “optical density (450 nm)” value ([2]; Table 8, serum 1784 (blood donor), Avidin) was 0.045, the “optical density (450 nm)” value ([2]; Table 8, serum 1785 (blood donor), Avidin) was 0.045 and the “optical density (450 nm)” value ([2]; Table 8, serum 1794 (blood donor), Avidin) was 0.153.
